Data set [1] deals with α1 adrenergic receptor. The experiment in a line: Displacement of specific binding of [3H]prazosin from rat forebrain membranes. The settings on record: 0.2 nM [3H]prazosin, affinity defined as IC50 for displacement of specific binding. On the procedure: Compounds of the formula I have selectivity for NR^2B subunit-containing NMDA receptors over α1-adrengergic receptors. Affinity for the NR^2B subunit containing NMDA receptor is measured as the IC50 for displacement of specific binding of racemic [^3H] (+)-(1S, 2S)-1-(4-hydroxy-phenyl)-2-(4-hydroxy4-phenylpiperidino)-1-propanol from rat forebrain membranes (described above). Affinity for the α1-adrengergic receptor is defined as the IC50 for displacement of specific binding of racemic [^3H]prazosin from rat brain membranes, measured as described by Greengrass and Bremner (Binding Characteristics of [^3H]prazosin to Rat Brain α-Adrenergic Receptors, European Journal of Pharmacology, 55, 323-326, (1979)).
Forebrains of adult male Sprague Dawley rats are homogenized in 20 volumes of ice cold 50 mM Tris/HCl buffer (pH 7.7). The homogenate is centrifuged at 50,000×g for 10 minutes at 4° C. The pellet is resuspended and centrifuged under identical conditions and the final pellet is resuspended in 80 volumes of 50 mM Tris/HCl (pH 8.0) at 4° C.
For binding assays, compounds under study are added at various concentrations to 500 μg membrane protein in 1 ml of 50 mM Tris/HCl buffer, followed by [^3H]prazosin (Amersham, specific activity 33 Ci/mmol, 0.2 nM final concentration). Following incubation for 30 min at 25° C. in a shaking water bath, samples are filtered onto Whatman GFB glass fiber filters using a MB-48R Cell Harvester (Brandel Research and Development Laboratories, Gaithersburg Md.). Filters are washed three times for 10s with ice cold Tris HCl buffer and the radioactivity trapped on the filter quantified by liquid scintillation spectroscopy. Nonspecific binding is determined in parallel incubations containing 100 nM prazosin. Specific binding is defined as total binding minus nonspecific binding.

Data set [2] deals with T1, NR2B subunit containing NMDA receptor (Rattus norvegicus, UniProt P35439+Q00960).
T1 construct: (+)-(1S, 2S)-1-(4-hydroxy-phenyl)-2-(4-hydroxy4-phenylpiperidino)-1-propanol from rat forebrain membranes; from tissue; host or cells: forebrain membranes of adult male CD rats
Kind of data set: Displacement of specific binding of racemic [3H](+)-(1S,2S)-1-(4-hydroxy-phenyl)-2-(4-hydroxy-4-phenylpiperidino)-1-propanol ([3H]CP-101,606) from rat forebrain membranes. The settings on record: ratio of the two binding IC50s; selectivity for NR2B NMDA receptor over α1 adrenergic receptor; greater than three is considered selective. On the procedure:
This affinity is assessed in a radioligand binding assay as described below.
The binding of racemic [^3H] […] Forebrains of adult male CD rats are homogenized in 0.32M sucrose at 4° C. The crude nuclear pellet is removed by centrifugation at 1,000×g for 10 minutes, and the supernatant centrifuged at 17,000×g for 25 minutes. The resulting pellet is resuspended in 5 mM Tris acetate pH 7.4 at 4° C. for 10 minutes to lyse cellular particles and again centrifuged at 17,000×g. The resulting pellet is washed twice in Tris acetate, resuspended at 10 mg protein/ml and stored at −20° C. until use.
For binding assays, membranes are thawed, homogenized, and diluted to 0.5 mg protein/ml with 50 mM Tris HCl, pH 7.4. Compounds under study are added at various concentrations followed by racemic [^3H] […] Following incubation for 20 min at 30° C. in a shaking water bath, samples are filtered onto Whatman GFB glass fiber filters using a MB-48R Cell Harvester (Brandel Research and Development Laboratories, Gaithersburg Md.). Filters are washed for 10 s with ice cold Tris HCl buffer and the radioactivity trapped on the filter quantified by liquid scintillation spectroscopy. […] Specific binding is defined as total binding minus nonspecific binding.
Affinity for the NR^2B subunit containing NMDA receptor is measured as the IC50 for displacement of specific binding of racemic [^3H] […] Affinity for the α1-adrengergic receptor is defined as the IC50 for displacement of specific binding of racemic [^3H]prazosin from rat brain membranes, measured as described by Greengrass and Bremner (Binding Characteristics of [^3H]prazosin to Rat Brain α-Adrenergic Receptors, European Journal of Pharmacology, 55, 323-326, (1979)).

T1 sequence (Q00960 27-1482, other chains not shown): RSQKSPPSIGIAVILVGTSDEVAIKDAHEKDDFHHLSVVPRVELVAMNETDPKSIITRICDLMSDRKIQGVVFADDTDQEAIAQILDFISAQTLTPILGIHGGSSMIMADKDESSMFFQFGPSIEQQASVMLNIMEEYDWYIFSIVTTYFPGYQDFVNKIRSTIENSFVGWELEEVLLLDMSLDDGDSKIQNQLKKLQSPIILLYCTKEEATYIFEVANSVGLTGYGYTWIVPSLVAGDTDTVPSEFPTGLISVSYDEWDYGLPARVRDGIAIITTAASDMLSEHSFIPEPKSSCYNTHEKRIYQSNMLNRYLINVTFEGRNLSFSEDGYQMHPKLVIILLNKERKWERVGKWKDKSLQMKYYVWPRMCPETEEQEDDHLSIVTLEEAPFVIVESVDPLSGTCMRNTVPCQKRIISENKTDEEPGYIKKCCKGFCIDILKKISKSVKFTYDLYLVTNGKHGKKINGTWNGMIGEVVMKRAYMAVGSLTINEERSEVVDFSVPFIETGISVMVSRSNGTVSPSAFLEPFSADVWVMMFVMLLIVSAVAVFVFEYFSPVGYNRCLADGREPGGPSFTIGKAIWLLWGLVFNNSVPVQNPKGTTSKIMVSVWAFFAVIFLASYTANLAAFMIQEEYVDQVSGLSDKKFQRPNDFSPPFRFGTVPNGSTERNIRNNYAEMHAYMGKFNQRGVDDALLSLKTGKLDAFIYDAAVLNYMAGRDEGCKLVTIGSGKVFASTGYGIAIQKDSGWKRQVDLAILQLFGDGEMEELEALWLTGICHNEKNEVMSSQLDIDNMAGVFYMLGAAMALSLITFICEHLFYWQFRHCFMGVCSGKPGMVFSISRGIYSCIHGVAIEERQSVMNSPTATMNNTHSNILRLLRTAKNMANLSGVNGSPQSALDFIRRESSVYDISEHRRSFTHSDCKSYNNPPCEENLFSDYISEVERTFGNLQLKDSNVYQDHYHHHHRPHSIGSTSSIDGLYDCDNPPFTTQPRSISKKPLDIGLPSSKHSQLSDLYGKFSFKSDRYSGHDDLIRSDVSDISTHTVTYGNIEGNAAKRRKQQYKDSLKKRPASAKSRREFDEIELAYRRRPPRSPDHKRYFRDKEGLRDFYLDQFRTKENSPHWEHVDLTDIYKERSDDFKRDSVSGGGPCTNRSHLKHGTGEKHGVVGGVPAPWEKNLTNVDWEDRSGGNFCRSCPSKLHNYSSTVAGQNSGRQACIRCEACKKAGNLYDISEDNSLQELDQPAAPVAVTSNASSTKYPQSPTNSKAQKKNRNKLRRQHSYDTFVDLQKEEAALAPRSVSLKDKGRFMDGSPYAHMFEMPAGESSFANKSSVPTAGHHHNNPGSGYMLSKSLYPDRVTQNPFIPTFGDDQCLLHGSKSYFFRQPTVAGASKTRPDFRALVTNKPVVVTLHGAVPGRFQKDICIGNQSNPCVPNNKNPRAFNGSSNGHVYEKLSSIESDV

Regarding `Cc1cc([C@@H](O)[C@@H](C)N2CCC(O)(c3ccc(F)cc3)CC2)ccc1O` (relative stereo) [(1R*, 2R*)-1-(4-hydroxy-3-methylphenyl)-2-(4-(4-fluorophenyl)-4-hydroxypiperidin-1-yl)-propan-1-ol-mesylate], the IC50 in data set [1] stood at 10 µM.

In the case of `Oc1ccc2c(c1)OCC(N1CCC(O)(c3ccc(F)cc3)CC1)[C@H]2O` (stereo in doubt), the melting point is 159 to 160 °C.

Molecule `COc1cc([C@H](O)[C@H](C)N2CCC(O)(c3ccccc3)CC2)ccc1O` [1S, 2S 1-(4-hydroxy-3-methoxyphenyl)-2-(4-hydroxy-4-phenyl-piperidin-1-yl)-propan-1-ol] registered an IC50 in data set [1] of 8.1 µM. The “Ratio [^3H]Prazosin/[^3H](+)-(1S, 2S)-1-(4-hydroxy-phenyl)-2-(4-hydroxy-4-phenylpiperidino)-1-propanol” value (“Ratio” for short) in data set [2] was 86.

Consider `C[C@@H]([C@@H](O)c1ccc(O)cc1)N1CCC(O)(c2ccccc2)CC1` [(1S,2S)-1-(4-hydroxyphenyl)-2-(4-hydroxy-4-phenylpiperidino)-1-propanol], for which the IC50 in data set [1] worked out at 19.5 µM.

Take `Oc1ccc2c(c1)OC[C@@H](N1CCC(O)(c3ccc(F)cc3)CC1)[C@H]2O` [(3R,4S)-3-[4-(4-fluorophenyl)-4-hydroxy-piperidin-1-yl]-chroman-4,7-diol]: the IC50 in data set [1] was greater than 10 µM. For the same molecule, the “Ratio” value in data set [2] was “≧555”.

`OC(CN1CCC(Cc2ccc(F)cc2)CC1)c1ccc(Cl)cc1` (stereo not drawn) [Eliprodil, reference compound] had an IC50 in data set [1] of 0.98 ± 0.22 µM. For the same molecule, the “Ratio” value in data set [2] worked out at 2.2.
